Entries after “also recorded” stand apart in the source; their conditions may differ.
Assays:
[1] = tested on: rats with permanent ligation of bilateral common carotid arteries (2-VO model); test: Morris' water maze (training latency, platform exploration) in 2-VO hypoperfusion model; type: in vivo, Wistar rats; conditions: for effect on detention time in the target quadrant (platform exploration test) / improvement of latency / search strategy in water maze: 2-VO rats; for improvement of latency / search strategy in water maze: vs solvent control; for amelioration of impaired short-term memory and spatial orientation (overall conclusion): 2-VO rats with poor blood supply to brain, L-NBP at 10 mg/kg, 10 mg/kg
[2] = tested on: rats with coriamyrtin-induced impaired learning and memory; conditions: Shuren Yu et al. 1988, cited from earlier work
[3] = tested on: rats with continuous perfusion of Aβ (1-40) into lateral ventricle; test: Morris' water maze and working memory test after continuous i.c.v. perfusion of Aβ (1-40); type: in vivo, Wistar rats; conditions: continuous perfusion of Aβ (1-40) into lateral ventricle, rats, Morris' water maze
Method: For Morris' Water Maze Automatic Monitor and experimental protocols, reference may be made to the experiments of learning and memory damage of rats induced by brain hypoperfusion.
Male Wistar rats, which were 10-weeks old and weighed approximately 280 grams, were used. One animal was placed in one cage, while the room temperature was kept at 23° C., with food and water freely accessible. Rats were anaesthetized with sodium pentobarbital (40 mg/kg), and were fixed to stereotaxic apparatus with the position of ventral decubitus. Head skin was cut open, a cannula for Aβ (1-40) perfusion was implanted into right ventricle. According to the stereotaxic profile of rat brain by Paxions and Watson, the implantation site was located 0.3 mm behind and 1.1 mm in the right side of anterior fontanelle, with the depth of 4.0 mm. The cannula was connected to a micro-osmotic pump. The pump was placed on the back of the rat. Aβ (1-40) was dissolved in 35% acetonitrile/0.1% trifluroacetic acid, and was continuously perfused intracerebroventricularly (i.c.v.) at 300 pmol/day, while only the solvent (35% acetonitrile/0.1% trifluroacetic acid) was perfused in the control group.
Rats were randomly classified into […] groups, with 10 animals per group. 1) the sham surgery group: only 35% acetonitrile/0.1% trifluroacetic acid+solvent was perfused into the ventricles of the rats; 2) the model group: Aβ (1-40)+solvent; 3) Aβ (1-40)+L-NBP 10 mg/kg group; 4) Aβ (1-40)+L-NBP 30 mg/kg group. Respective drug or solvent was drenched since the 2nd day after the surgery. The water maze experiment was performed on the 9-13 day after the surgery, while the platform exploration experiment was performed on the 13th day, and the working memory test was performed on the 14-16th days. Animals were decapitated to remove brains for biochemical assay on the 17th day. In all ethological tests, medicines were administered 40 minutes prior to the respective test.
The water maze training experiment was performed on the 9-13th day after icv Aβ (1-40), and the platform exploration experiment was performed on the 13 day after that. The working memory test was performed on the 14-16th day after icv Aβ (1-40) (see the figure above), which investigated the ability of rapid learning and spatial memory in animals when the platform and quadrant were changed, based on the fact that animals had memorized in some extent after training and platform exploration experiment. Experimental procedure was similar to the standard water maze training experiment except that the platform's location was changed every day. The experiment was conducted five times every day, allowing the rats to start swimming from five water-entry sites respectively. […] In the following 4 experiments, the location of the platform was kept constant, yet the water entry sites were within different quadrants. The latency of working memory was calculated by averaging those of the 2-5th experiments, and the ability of working memory of each rat was calculated by averaging the experimental values in 3 days.
All results were expressed in mean±standard error. Comparison of latencies between groups in water maze experiment was performed using two-factor analysis of variance in replicate. Comparison between groups was performed using post hoc LSD or Turkey test. Platform exploration test in water maze experiment, working memory test and biochemical assay were analyzed using one-factor analysis of variance. A difference was considered significant when p<0.05.

Compound | effect on detention time in the target quadrant (platform exploration test) ([1]; 10 mg/kg oral) | improvement of latency / search strategy in water maze ([1]; 10 mg/kg oral) | effect on detention time in the target quadrant (platform exploration test) ([1]; 30 mg/kg oral) | improvement of latency / search strategy in water maze ([1]; 30 mg/kg oral) | amelioration of impaired short-term memory and spatial orientation (overall conclusion) ([1]; listed as racemic (DL-)) | amelioration of impaired short-term memory and spatial orientation (overall conclusion) ([1]; listed as racemic butylphthalide) | improvement of impaired learning and memory induced by coriamyrtin [2] | protection of hippocampal cells ([2]; coriamyrtin) | amelioration of impaired short-term memory and stereotaxic memory (overall conclusion) [3] | amelioration of impaired short-term memory and spatial orientation (overall conclusion) [1] | amelioration of impaired short-term memory and spatial orientation (overall conclusion) ([1]; listed as D-butylphthalide)
CCCCC1OC(=O)c2ccccc21 (racemic) [DL-NBP, 3-n-butylphthalide] | no effect | no significant effect of improvement; also recorded: no obvious improved effect | no effect | no significant effect of improvement; also recorded: no obvious improved effect | could not | neither racemic butylphthalide nor D-butylphthalide were effective | could be used to improve the impaired learning and memory | protect hippocampal cells | neither D-NBP nor DL-NBP showed similar effects | – | –
CCCC[C@H]1OC(=O)c2ccccc21 [D-NBP, D-n-butylphthalide] | – | – | – | no significant effect of improvement; also recorded: no obvious improved effect | – | – | – | – | neither D-NBP nor DL-NBP showed similar effects | could not | neither racemic butylphthalide nor D-butylphthalide were effective

— patent US8552058B2, “Application of L-n-butylphthalide in preventing and treating dementia” (CSPC Zhongqi Pharmaceutical Technology (Shijazhuang) Co., …, priority 2004, dated 2013)
